Data from PMC10056595, “Odorant-Binding Proteins and Chemosensory Proteins in Spodoptera frugiperda: From Genome-Wide Identification and Developmental Stage-Related Expression Analysis to the Perception of Host Plant Odors, Sex Pheromones, and Insecticides” (International Journal of Molecular Sciences, 2023).
Like-named read-outs stand apart in the source and are kept apart here.

Experiments:
SfruOBP31 [1] = target: T1, SfruOBP31 (Spodoptera frugiperda, UniProt A0A2H1W9W7); experiment: fluorescence competitive binding assay with the probe 1-NPN; conditions: for Ki: competing ligand 2–20 µM, 2.0 µM 1-NPN, 2.0 µM protein, Ki < 20 µM recognized as binding; for binding of SfruOBP31 to the ligand (in words): competitive binding with 1-NPN, threshold Ki < 20 µM recognized as binding
Procedure: To investigate the ligand binding ability of SfruOBP31, we used a fluorescence competitive binding assay using the fluorescent probe N-phenyl-1-naphthylamine (1-NPN). Binding experiments were performed on a microplate reader using a Greiner 96 Black Flat Bottom. Among the ligands, we tested five host volatiles from the host plant Zea mays: decanal (97% purity, Shanghai Acmec Biochemical Co., Ltd., Shanghai, China), linalool (98% purity, Shanghai Acmec Biochemical Co., Ltd.), leaf alcohol (98% purity, Shanghai Acmec Biochemical Co., Ltd.), 1-nonanol (98% purity, Shanghai Acmec Biochemical Co., Ltd.), and cis-3-hexenyl acetate (98% purity, Shanghai Acmec Biochemical Co., Ltd.); four pheromones: (Z)-9-tetradecenyl acetate (93% purity, Shenzhen Regent Biochemical Technology Co., Ltd., Shenzhen, China), (Z)-11-hexadecenyl acetate (98% purity, Shanghai Bidd Medical Technology Co., Ltd., Shanghai, China), (Z)-7-dodecenyl acetate (90% purity, Shanghai Bidd Medical Technology Co., Ltd.), and (Z)-9-dodecenyl acetate (90% purity, Shanghai Bidd Medical Technology Co., Ltd.); and five pesticides: emamectin benzoate (90% purity, Energy Chemical), lufenuron (97.4% purity, Shanghai Yuanye Biotechnology Co., Ltd., Shanghai, China), chlorfenapyr (98% purity, Shanghai Yuanye Biotechnology Co., Ltd.), chlorantraniliprole (95% purity, Shanghai Yuanye Biotechnology Co., Ltd.), and lambda-cyhalothrin (96% purity, Guangdong Liwei Chemical Co., Ltd., Maoming, China). All chemicals used for testing and the fluorescent probe 1-NPN were dissolved in GC purify-grade methanol in a 400 µM solution. The 2.0 µM protein solution (in 10 mM HEPES and 100 mM NaCl buffer, pH 7.5) was titrated with 400 µM 1-NPN to a final concentration of 2–20 µM. The binding constant of the protein to 1-NPN was analyzed by assessing the continuous change of fluorescence value. Compounds of 2–20 µM concentration were added to the mixture of 2.0 µM 1-NPN and 2.0 µM protein or 2.0 µM 1-NPN alone to determine the binding rate of the ligands to the protein and the value of the fluorescence. The final fluorescence value was calculated as the fluorescence value after the addition of 1-NPN and protein with the competing ligand minus the fluorescence value after the addition of 1-NPN with the competing ligand only.
(§1) The dissociation constants (K1-NPN) of SfruOBP31 were calculated using Graphpad Prism 8 software. The dissociation constant (Ki) of 1-NPN by competing ligands was calculated with the following formula using IC50 value: Ki = [IC50]/(1 + [1-NPN]/K1-NPN). Here, IC50 is the concentration of competing ligands when the fluorescence intensity reaches half of the initial fluorescence intensity of 1-NPN, and [1-NPN] indicates the concentration of 1-NPN [16]. A threshold of Ki < 20 µM was recognized as binding.

SfruOBP31 [2] = target: T1, SfruOBP31; experiment: 1-NPN fluorescence binding (titration of SfruOBP31 with 1-NPN); conditions: binding curve of SfruOBP31 with 1-NPN
Procedure: To investigate the ligand binding ability of SfruOBP31, we used a fluorescence competitive binding assay using the fluorescent probe N-phenyl-1-naphthylamine (1-NPN). Binding experiments were performed on a microplate reader using a Greiner 96 Black Flat Bottom. […] The binding constant of the protein to 1-NPN was analyzed by assessing the continuous change of fluorescence value. Compounds of 2–20 µM concentration were added to the mixture of 2.0 µM 1-NPN and 2.0 µM protein or 2.0 µM 1-NPN alone to determine the binding rate of the ligands to the protein and the value of the fluorescence. The final fluorescence value was calculated as the fluorescence value after the addition of 1-NPN and protein with the competing ligand minus the fluorescence value after the addition of 1-NPN with the competing ligand only.
as §1, with “A threshold of Ki < 20 µM was recognized as binding.” left out

[3] = Ki = [IC50]/(1 + [1-NPN]/K1-NPN)
[4] = Ki = [IC50]/(1 + [1-NPN]/K1-NPN), read-out: Ki

T1 sequence (A0A2H1W9W7 entry or part of it): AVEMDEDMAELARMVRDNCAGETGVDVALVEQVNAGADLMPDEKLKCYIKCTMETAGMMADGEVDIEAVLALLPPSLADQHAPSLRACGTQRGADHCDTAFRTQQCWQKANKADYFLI

Ki (SfruOBP31 [1]; [4])	Molecule	Ki (SfruOBP31 [1]; [3])	binding of SfruOBP31 to the ligand (in words) (SfruOBP31 [1])	further results
–	CC1(C)[C@H](C(=O)O[C@H](C#N)c2cccc(Oc3ccccc3)c2)[C@@H]1/C=C(\Cl)C(F)(F)F (racemic) [lambda-cyhalothrin, reference compound]	2.78 µM	–	–
–	c1ccc(Nc2cccc3ccccc23)cc1 [1-NPN, N-phenyl-1-naphthylamine]	–	–	Bmax (1-NPN, printed in Figure 11A) (SfruOBP31 [2]): 702,842
14.2 µM	CCCCCCCCCO [1-nonanol]	–	–	–
5.02 µM	CCCC/C=C\CCCCCCCCOC(C)=O [(Z)-9-tetradecenyl acetate]	–	selectively binds	–
5.4 µM	CCCC/C=C\CCCCCCCCCCOC(C)=O [(Z)-11-hexadecenyl acetate]	–	selectively binds	–
–	CNC(=O)c1cc(Cl)cc(C)c1NC(=O)c1cc(Br)nn1-c1ncccc1Cl [chlorantraniliprole, reference compound]	22.3 µM	lack of binding	–
–	CCOCn1c(-c2ccc(Cl)cc2)c(C#N)c(Br)c1C(F)(F)F [chlorfenapyr, reference compound]	–	–	Ki (SfruOBP31 [1]; read-out: Ki (unit inferred)): 8.1 µM
6.38 µM	CC/C=C\CCOC(C)=O [cis-3-hexenyl acetate]	–	–	–
19.6 µM	CCCCCCCCCC=O [decanal]	–	–	–
–	C=CC(C)(O)CCC=C(C)C (centres unmarked) [linalool]	4.04 µM	–	–
–	O=C(NC(=O)c1c(F)cccc1F)Nc1cc(Cl)c(OC(F)(F)C(F)C(F)(F)F)cc1Cl (centres unmarked) [lufenuron, reference compound]	37.6 µM	lack of binding	–

Molecule	Ki (SfruOBP31 [1]; [4])	Ki (SfruOBP31 [1]; [3])	binding of SfruOBP31 to the ligand (in words) (SfruOBP31 [1])	further results
emamectin benzoate [reference compound]	27.6 µM	–	lack of binding	–
